Literature values, collected in US20050186168A1, “Skin remodeling and regenerative compositions containing elastin peptide ligands having the amino acid sequence (XGXXPG)n” (priority 2004, published 2005).

Assays:
[1] = tested on: Human lymphocytes; settings: 1 microgram/ml
[2] = tested on: elastin-laminin receptor (ELR); settings: 5 micrograms/ml (140 micromolar), 10th and 15th passage
[3] = tested on: human skin fibroblasts
[4] = tested on: pro-MMP-1; settings: for concentration sufficient to stimulate pro-MMP-1 production: fibroblast culture, comparable stimulation levels
[5] = tested on: MMP-1 mRNA; settings: after 24 h of culture; standardized with 36B4 cDNA probe
[6] = tested on: pro-MMP-3
[7] = 1 mM lactose in fibroblast culture medium

In the case of OC[C@H]1O[C@H](OCC2O[C@@H](O)[C@H](O)[C@@H](O)[C@@H]2O)[C@H](O)[C@@H](O)[C@H]1O (stereo partly shown) [melibiose], the “elastin peptide-induced cell death” value [1] is given as “inhibited”, the fibronectin biosynthesis [2] is given as “decreased” and the total protein biosynthesis [2] is given as “decreased”. For the same molecule, the “incorporation of the tracer in GAGs” value [3] was “increased” and the “post-synthetic degradation of hyaluronan” value [3] was “inhibited”.

For VGVAPG, the pro-MMP-1 induction level [4] is listed as 1 ng/h/10^5 fibroblasts, the “concentration sufficient to stimulate pro-MMP-1 production” value (“concentration sufficient” for short) [4] is listed as 200 µg/mL and the “MMP-1 mRNA levels increased” value [5] is listed as 8 fold. The “expression of proteins reacting with anti-MMP-3 antibody (pro-MMP-3)” value ([6]; Western blotting, stimulated fibroblasts) was “significantly up-regulated”.

In the case of “interleukin-1 receptor antagonist: interleukin-1 receptor antagonist”, the “blocking of elastin peptide-dependent induction of pro-MMP-1” value [4] is given as “could not be blocked”.

In the case of LGTIPG, the “stimulation of MMP-1 expression” value ([4]; laminin-derived peptide) is given as “Stimulation of MMP-1 expression could also be achieved”.

For OC[C@H]1O[C@@H](O[C@H]2[C@H](O)[C@@H](O)C(O)O[C@@H]2CO)[C@H](O)[C@@H](O)[C@H]1O (stereo partly shown) [lactose], the “elastin peptide-induced cell death” value [1] is given as “inhibited”, the “inhibition of VGVAPG-stimulating effect on pro-MMP-1 production” value [4, 7] is given as 80% and the “inhibition of kE-stimulated pro-MMP-1 production” value [4, 7] is given as 35%. For the same molecule, the “effect on pro-MMP-1 accumulation stimulated by interleukin-1” value ([4]; lactose alone) was “no effect” and the “accumulation of pro-MMP-3 in the medium” value ([6]; cells treated with 1 mM lactose) was “decreased”.

In the case of GVAPGV, the “efficiency of pro-MMP-1 induction relative to VGVAPG (more efficient)” value ([4]; compared with VGVAPG) is given as 20%.

B1: Elastin: extracellular matrix protein elastin (protein, UniProt P15502 27-786, looked up)
Elastin: GGVPGAIPGGVPGGVFYPGAGLGALGGGALGPGGKPLKPVPGGLAGAGLGAGLGAFPAVTFPGALVPGGVADAAAAYKAAKAGAGLGGVPGVGGLGVSAGAVVPQPGAGVKPGKVPGVGLPGVYPGGVLPGARFPGVGVLPGVPTGAGVKPKAPGVGGAFAGIPGVGPFGGPQPGVPLGYPIKAPKLPGGYGLPYTTGKLPYGYGPGGVAGAAGKAGYPTGTGVGPQAAAAAAAKAAAKFGAGAAGVLPGVGGAGVPGVPGAIPGIGGIAGVGTPAAAAAAAAAAKAAKYGAAAGLVPGGPGFGPGVVGVPGAGVPGVGVPGAGIPVVPGAGIPGAAVPGVVSPEAAAKAAAKAAKYGARPGVGVGGIPTYGVGAGGFPGFGVGVGGIPGVAGVPGVGGVPGVGGVPGVGISPEAQAAAAAKAAKYGAAGAGVLGGLVPGAPGAVPGVPGTGGVPGVGTPAAAAAKAAAKAAQFGLVPGVGVAPGVGVAPGVGVAPGVGLAPGVGVAPGVGVAPGVGVAPGIGPGGVAAAAKSAAKVAAKAQLRAAAGLGAGIPGLGVGVGVPGLGVGAGVPGLGVGAGVPGFGAGADEGVRRSLSPELREGDPSSSQHLPSTPSSPRVPGALAAAKAAKYGAAVPGVLGGLGALGGVGIPGGVVGAGPAAAAAAAKAAAKAAQFGLVGAAGLGGLGVGGLGVPGVGGLGGIPPAAAAKAAKYGAAGLGGVLGGAGQFPLGGVAARPGFGLSPIFPGGACLGKACGRKRK
For B1, the “concentration sufficient” value [4] is given as 50 µg/mL.

B2: tropoelastin: the soluble precursor of elastin (protein, UniProt P15502 27-786, looked up)
Elastin: GGVPGAIPGGVPGGVFYPGAGLGALGGGALGPGGKPLKPVPGGLAGAGLGAGLGAFPAVTFPGALVPGGVADAAAAYKAAKAGAGLGGVPGVGGLGVSAGAVVPQPGAGVKPGKVPGVGLPGVYPGGVLPGARFPGVGVLPGVPTGAGVKPKAPGVGGAFAGIPGVGPFGGPQPGVPLGYPIKAPKLPGGYGLPYTTGKLPYGYGPGGVAGAAGKAGYPTGTGVGPQAAAAAAAKAAAKFGAGAAGVLPGVGGAGVPGVPGAIPGIGGIAGVGTPAAAAAAAAAAKAAKYGAAAGLVPGGPGFGPGVVGVPGAGVPGVGVPGAGIPVVPGAGIPGAAVPGVVSPEAAAKAAAKAAKYGARPGVGVGGIPTYGVGAGGFPGFGVGVGGIPGVAGVPGVGGVPGVGGVPGVGISPEAQAAAAAKAAKYGAAGAGVLGGLVPGAPGAVPGVPGTGGVPGVGTPAAAAAKAAAKAAQFGLVPGVGVAPGVGVAPGVGVAPGVGLAPGVGVAPGVGVAPGVGVAPGIGPGGVAAAAKSAAKVAAKAQLRAAAGLGAGIPGLGVGVGVPGLGVGAGVPGLGVGAGVPGFGAGADEGVRRSLSPELREGDPSSSQHLPSTPSSPRVPGALAAAKAAKYGAAVPGVLGGLGALGGVGIPGGVVGAGPAAAAAAAKAAAKAAQFGLVGAAGLGGLGVGGLGVPGVGGLGGIPPAAAAKAAKYGAAGLGGVLGGAGQFPLGGVAARPGFGLSPIFPGGACLGKACGRKRK
In the case of B2, the “concentration sufficient” value [4] is given as 50 µg/mL.
